Values of other authors as cited in US20210260201A1, “EXTRACELLULAR VESICLES FOR THE TREATMENT AND PREVENTION OF INFECTIONS AND OTHER DISEASES” (PHYSIS BIOTECHNOLOGIES, LLC, priority 2020, published 2021).
Where two headings read alike, the source gives them in different places.

C=C(C)[C@@H]1CCC(C)=C[C@H]1c1c(O)cc(CCCCC)cc1O [CBD, cannabidiol]
bioavailability (intranasal): 34-46%
bioavailability (oral (edibles)): 6-20%
bioavailability (sublingual (tinctures)): 13-19%
